Test results: patent US11753397B2, “Cereblon binders for the degradation of ikaros” (C4 Therapeutics, Inc., priority 2018, dated 2023)

Tested on: NCIH929.1 cells
Test: Cell viability assay (CellTiter-Glo 2.0, ATP quantification)
Assay type: cell-based
Settings: NCIH929.1 cell viability, CellTiter-Glo 2.0, 96 hr incubation, top concentration 1 μM
Method: Example 59. Cell Viability Assay
RPMI 1640 medium, fetal bovine serum (FBS) and 2-mercaptoethanol were purchased from Gibco (Grand Island, N.Y., USA). CellTiter-Glo® 2.0 Assay was purchased from Promega (Madison, Wis., USA). NCIH929.1 cell line was purchased from ATCC (Manassas, Va., USA). Cell culture flasks and 384-well microplates were acquired from VWR (Radnor, Pa., USA).
NCIH929.1 cell viability was determined based on quantification of ATP using CellTiter-Glo® 2.0 luminescent Assay kit, which signals the presence of metabolically-active cells. Briefly, the test compound was added to 384-well plates at a top concentration of 1 μM with 10 points, half log titration in duplicates. NCIH929.1 cells were seeded into the 384-well plates in RPMI medium containing 10% FBS and 0.05 mM 2-mercaptoethanol at a cell density of 750 cells per well. Cells treated in the absence of the test compound were the negative control and cells treated in the absence of CellTiter-Glo® 2.0 were the positive control. At the same day of compound treatment, CellTiter-Glo® 2.0 was added to a plate with cells treated in the absence of the test compound to establish Cytostatic control value (CT0). Cells treated with the test compound were incubated at 37° C. with 5% CO2 for 96 hr. CellTiter-Glo reagent was then added to the cells and luminescence was acquired on EnVision™ Multilabel Reader (PerkinElmer, Santa Clara, Calif., USA).

Structure (SMILES) | GI50 [nM]
CC1(C(=O)N2CCC(n3cc(CNc4cccc5c4C(=O)N(C4CCC(=O)NC4=O)C5=O)c(N)n3)CC2)CCC1 (stereo not shown) [Compound 179, 4-(((3-Amino-1-(1-(1-methylcyclobutane-1-carbonyl)piperidin-4-yl)-1H-pyrazol-4-yl)methyl)amino)-2-(2,6-dioxopiperidin-3-yl)isoindoline-1,3-dione] | < 100
CC(=O)N1C2CCC1CC(n1cc(CNc3cccc4c3C(=O)N(C3CCC(=O)NC3=O)C4=O)cn1)C2 (stereo not shown) [Compound 156, 4-[[1-(8-acetyl-8-azabicyclo[3.2.1]octan-3-yl)pyrazol-4-yl]methylamino]-2-(2,6-dioxo-3-piperidyl)isoindoline-1,3-dione] | < 100
O=C1CCC(N2C(=O)c3cccc(NCc4cnn([C@H]5CC[C@H](C(=O)N6CCCCC6)CC5)c4)c3C2=O)C(=O)N1 (stereo partly shown) [Compound 170, 2-(2,6-Dioxopiperidin-3-yl)-4-(((1-((1r,4r)-4-(piperidine-1-carbonyl)cyclohexyl)-1H-pyrazol-4-yl)methyl)amino)isoindoline-1,3-dione] | < 100
CC1(C(=O)N2CCC(n3cc(CNc4cccc5c4C(=O)N(C4CCC(=O)NC4=O)C5=O)cn3)CC2)CC1(Cl)Cl (stereo not shown) [Compound 87, 4-(((1-(1-(2,2-dichloro-1-methylcyclopropane-1-carbonyl)piperidin-4-yl)-1H-pyrazol-4-yl)methyl)amino)-2-(2,6-dioxopiperidin-3-yl)isoindoline-1,3-dione] | < 1
O=C1CCC(N2C(=O)c3cccc(NCc4cnn(C5CCN(C(=O)c6cc(C7CC7)on6)CC5)c4)c3C2=O)C(=O)N1 (stereo not shown) [Compound 39, 4-(((1-(1-(5-cyclopropylisoxazole-3-carbonyl)piperidin-4-yl)-1H-pyrazol-4-yl)methyl)amino)-2-(2,6-dioxopiperidin-3-yl)isoindoline-1,3-dione] | < 100
O=C1CCC(N2C(=O)c3cccc(NCc4cnn(C5CCN(C(=O)C6(Cc7ccccc7)CC6)CC5)c4)c3C2=O)C(=O)N1 (stereo not shown) [Compound 71, 4-(((1-(1-(1-benzylcyclopropane-1-carbonyl)piperidin-4-yl)-1H-pyrazol-4-yl)methyl)amino)-2-(2,6-dioxopiperidin-3-yl)isoindoline-1,3-dione] | < 100
CC1(C(=O)N2CCC(n3cc(CNc4cccc5c4C(=O)N(C4CCC(=O)NC4=O)C5=O)cn3)CC2)CC1 (stereo not shown) [Compound 36, 2-(2,6-dioxopiperidin-3-yl)-4-(((1-(1-(1-methylcyclopropane-1-carbonyl)piperidin-4-yl)-1H-pyrazol-4-yl)methyl)amino)isoindoline-1,3-dione] | < 100
O=C1CCC(N2C(=O)c3cccc(NCc4cnn(C5CCN(C(=O)C67C8C9C%10C8C6C%10C97)CC5)c4)c3C2=O)C(=O)N1 [Compound 95, 4-(((1-(1-((1s,4R,3R,4r,5r,6S,7S,8s)-cubane-1-carbonyl)piperidin-4-yl)-1H-pyrazol-4-yl)methyl)amino)-2-(2,6-dioxopiperidin-3-yl)isoindoline-1,3-dione] | < 1
O=C1CCC(N2C(=O)c3cccc(NCc4cnn(C5CCN(C(=O)C6(c7ccc(F)cc7)CCC6)CC5)c4)c3C2=O)C(=O)N1 (stereo not shown) [Compound 70, 2-(2,6-dioxopiperiidn-3-yl)-4-(((1-(1-(1-(4-fluorophenyl)cyclobutane-1-carbonyl)piperidin-4-yl)-1H-pyrazol-4-yl)methyl)amino)isoindoline-1,3-dione] | < 1
O=C1CCC(N2C(=O)c3cccc(NCc4cnn(C5CCN(C6CC7(CCC7)C6)CC5)c4)c3C2=O)C(=O)N1 (stereo not shown) [Compound 135, 2-(2,6-dioxopiperidin-3-yl)-4-(((1-(1-(spiro[3.3]heptan-2-yl)piperidin-4-yl)-1H-pyrazol-4-yl)methyl)amino)isoindoline-1,3-dione] | < 100
CC(=O)N1CCC(n2cc(CNc3cccc4c3C(=O)N(C3CCC(=O)NC3=O)C4=O)cn2)CC1 (stereo not shown) [Compound 159, 4-[[1-(1-acetyl-4-piperidyl)pyrazol-4-yl]methylamino]-2-(2,6-dioxo-3-piperidyl)isoindoline-1,3-dione] | < 100
CN(C(=O)N1CCC(n2cc(CNc3cccc4c3C(=O)N(C3CCC(=O)NC3=O)C4=O)cn2)CC1)C(C)(C)C (stereo not shown) [Compound 178, N-(tert-Butyl)-4-(4-(((2-(2,6-dioxopiperidin-3-yl)-1,3-dioxoisoindolin-4-yl)amino)methyl)-1H-pyrazol-1-yl)-N-methylpiperidine-1-carboxamide] | < 100
CN1CCC(n2cc(CNc3cccc4c3C(=O)N(C3CCC(=O)NC3=O)C4=O)cn2)CC1 (stereo not shown) [Compound 157, 2-(2,6-dioxo-3-piperidyl)-4-[[1-(1-methyl-4-piperidyl)pyrazol-4-yl]methylamino]isoindoline-1,3-dione] | < 100
CC(C)(C)OC(=O)N1CCC(n2cc(CNc3cccc4c3C(=O)N(C3CCC(=O)NC3=O)C4=O)cn2)CC1 (stereo not shown) [Compound 66, tert-butyl 4-(4-(((2-(2,6-dioxopiperidin-3-yl)-1,3-dioxoisoindolin-4-yl)amino)methyl)-1H-pyrazol-1-yl)piperidine-1-carboxylate] | < 100
CC(=O)NCC1CCC(C(=O)N2CCC(n3cc(CNc4cccc5c4C(=O)N(C4CCC(=O)NC4=O)C5=O)cn3)CC2)CC1 (stereo not shown) [Compound 99, N-((4-(4-(4-(((2-(2,6-dioxopiperidin-3-yl)-1,3-dioxoisoindolin-4-yl)amino)methyl)-1H-pyrazol-1-yl)piperidine-1-carbonyl)cyclohexyl)methyl)acetamide] | < 100
O=C1CCC(N2C(=O)c3cccc(NCc4cnn(C5CCN(C(=O)C6(c7ccc(F)cc7)CCCC6)CC5)c4)c3C2=O)C(=O)N1 (stereo not shown) [Compound 77, 2-(2,6-dioxopiperidin-3-yl)-4-(((1-(1-(1-(4-fluorophenyl)cyclopentane-1-carbonyl)piperidin-4-yl)-1H-pyrazol-4-yl)methyl)amino)isoindoline-1,3-dione] | < 1
Cc1cccc(-c2nc(CC(=O)N3CCC(n4cc(CNc5cccc6c5C(=O)N(C5CCC(=O)NC5=O)C6=O)cn4)CC3)c(C)o2)c1 (stereo not shown) [Compound 115, 2-(2,6-dioxopiperidin-3-yl)-4-(((1-(1-(2-(5-methyl-2-(m-tolyl)oxazol-4-yl)acetyl)piperidin-4-yl)-1H-pyrazol-4-yl)methyl)amino)isoindoline-1,3-dione] | < 100
O=C1CCC(N2C(=O)c3cccc(NCc4cnn(C5CCN(C(=O)C6(C(F)(F)F)CC6)CC5)c4)c3C2=O)C(=O)N1 (stereo not shown) [Compound 60, 2-(2,6-dioxopiperidin-3-yl)-4-(((1-(1-(1-(trifluoromethyl)cyclopropane-1-carbonyl)piperidin-4-yl)-1H-pyrazol-4-yl)methyl)amino)isoindoline-1,3-dione] | < 100
CC(C)(C)OC(=O)N1CC2(CC(n3cc(CNc4cccc5c4C(=O)N(C4CCC(=O)NC4=O)C5=O)cn3)C2)C1 (stereo not shown) [Compound 167, tert-Butyl 6-(4-(((2-(2,6-dioxopiperidin-3-yl)-1,3-dioxoisoindolin-4-yl)amino)methyl)-1H-pyrazol-1-yl)-2-azaspiro[3.3]heptane-2-carboxylate] | < 100
CC1CC(n2cc(CNc3cccc4c3C(=O)N(C3CCC(=O)NC3=O)C4=O)cn2)CC(C)N1C(=O)OC(C)(C)C (stereo not shown) [Compound 168, tert-Butyl 4-(4-(((2-(2,6-dioxopiperidin-3-yl)-1,3-dioxoisoindolin-4-yl)amino)methyl)-1H-pyrazol-1-yl)-2,6-dimethylpiperidine-1-carboxylate] | < 100
O=C1CCC(N2C(=O)c3cccc(NCc4cnn(C5CCN(C(=O)C6(Cc7ccc(F)cc7)CCC6)CC5)c4)c3C2=O)C(=O)N1 (stereo not shown) [Compound 96, 2-(2,6-dioxopiperidin-3-yl)-4-(((1-(1-(1-(4-fluorobenzyl)cyclobutane-1-carbonyl)piperidin-4-yl)-1H-pyrazol-4-yl)methyl)amino)isoindoline-1,3-dione] | < 1
CCC(C)C(=O)N1CCC(n2cc(CNc3cccc4c3C(=O)N(C3CCC(=O)NC3=O)C4=O)cn2)CC1 (stereo not shown) [Compound 13, 2-(2,6-dioxopiperidin-3-yl)-4-(((1-(1-(2-methylbutanoyl)piperidin-4-yl)-1H-pyrazol-4-yl)methyl)amio)isoindoline-1,3-dione] | < 100
O=C1CCC(N2C(=O)c3cccc(NCc4cnn(C5CCN(C(=O)C6(Cc7ccc(F)cc7)CC6)CC5)c4)c3C2=O)C(=O)N1 (stereo not shown) [Compound 92, 2-(2,6-dioxopiperidin-3-yl)-4-(((1-(1-(1-(4-fluorobenzyl)cyclopropane-1-carbonyl)piperidin-4-yl)-1H-pyrazol-4-yl)methyl)amino)isoindoline-1,3-dione] | < 100
Cc1cncc(N2CCC(C(=O)N3CCC(n4cc(CNc5cccc6c5C(=O)N(C5CCC(=O)NC5=O)C6=O)cn4)CC3)CC2)n1 (stereo not shown) [Compound 122, 2-(2,6-dioxopiperidin-3-yl)-4-(((1-(1-(1-(6-methylpyrazin-2-yl)piperidine-4-carbonyl)piperidin-4-yl)-1H-pyrazol-4-yl)methyl)amino)isoindoline-1,3-dione] | < 1
CC(C)n1cc(CNc2cccc3c2C(=O)N(C2CCC(=O)NC2=O)C3=O)cn1 (stereo not shown) [Compound 152, 2-(2,6-dioxo-3-piperidyl)-4-[(1-isopropylpyrazol-4-yl)methylamino]isoindoline-1,3-dione] | < 100
